These are literature values, as cited in patent publication EP0859828B2, “DELIVERY SYSTEMS” (THE PROCTER & GAMBLE COMPANY, priority 1995, dated 1997).

For the series the following is noted: 25°C; cobalt pentaamine catalysts complexed with the named ligand.

As for `CC(=O)O` [acetate], the “base hydrolysis rates (kOH)” value was 0.00096 M⁻¹ s⁻¹.

Turning to oxalate, the “base hydrolysis rates (kOH)” value was 0.00025 M⁻¹ s⁻¹.
